Assay results as given in ChEMBL document CHEMBL1128138, “The synthesis, and dopamine D2 and serotonin 5-HT3 receptor affinity of 3-aza analogues (pyridyl) of 4-amino-5-chloro-2-methoxybenzamides” (Bioorg Med Chem Lett, 1995).

Experiments:
[1] = molecular target: D(2) dopamine receptor (Homo sapiens, UniProt P14416); assay: Binding affinity towards dopamine D2 receptor
[2] = system: Rattus norvegicus; assay: Ability to inhibit the Bezold-Jarisch reflex by i.v. administration; type: functional; conditions: iv, read-out: ID50 (the source's name)

Sequence of D(2) dopamine receptor (P14416 whole entry): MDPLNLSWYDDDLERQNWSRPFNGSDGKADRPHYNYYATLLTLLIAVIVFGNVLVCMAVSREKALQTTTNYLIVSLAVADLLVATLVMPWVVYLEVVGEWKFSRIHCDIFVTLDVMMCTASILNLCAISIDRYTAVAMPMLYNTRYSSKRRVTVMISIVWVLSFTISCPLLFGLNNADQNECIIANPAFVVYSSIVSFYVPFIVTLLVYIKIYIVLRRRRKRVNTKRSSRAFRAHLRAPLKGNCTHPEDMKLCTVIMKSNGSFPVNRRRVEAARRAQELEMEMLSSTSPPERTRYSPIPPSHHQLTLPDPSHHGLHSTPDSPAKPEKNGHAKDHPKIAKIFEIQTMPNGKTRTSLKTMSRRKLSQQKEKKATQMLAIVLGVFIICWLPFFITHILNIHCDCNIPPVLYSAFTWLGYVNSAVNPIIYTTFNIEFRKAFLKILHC

Compound	Ki [1] [nM]	ED50 [2] [µg/kg]
COc1nc(N)c(Cl)cc1C(=O)NC1CC2CCCC(C1)N2Cc1ccccc1 (centres undefined)	1.26	
COc1cc(N)c(Cl)cc1C(=O)NC1CC2CCCC(C1)N2Cc1ccccc1 (centres undefined)	0.251	
COc1cc(N)c(Cl)cc1C(=O)NC1CC2CCC(C1)N2C (centres undefined)		0.8
COc1cc(N)c(Cl)cc1C(=O)NC1CC2CCCC(C1)N2C (centres undefined)		0.4
